Source: patent US9040563B2, “Dual inhibitors of farnesyltransferase and geranylgeranyltransferase I” (H. Lee Moffitt Cancer Center and Research Institute, Inc., priority 2010, dated 2015)

Experiments:
[1] = test system: survivin; assay: Western blot of survivin and PARP (apoptosis); assay type: cell-based; details: human cancer cells
From the text: Mammalian target of rapamycin (mTOR) is a serine/threonine phosphatidylinositol 3-kinase-related kinase responsible for cell growth, proliferation, cell survival, protein synthesis, and transcription. Alteration of the mTOR pathway, either through activation of oncogenes or inactivation of tumor suppressors, disrupts a signaling equilibrium and causes malignant transformation. Studies have shown that phosphorylated S6 (pS6) is related to mTOR pathway alterations, and is useful in determining PI3K-based cancer therapies (Aziz, et al. Phosphatidylinositol-3-Kinase as a Therapeutic Target in Melanoma. Clin Cancer Res. 2009, 15; 3029-3036). Two breast adenocarcinoma and a pancreatic carcinoma cell line were treated with indicated concentrations of FGTI-2734, GGTI-2417 or FTI-2153. Protein extracts were run on a Western Blot using antibody against pS6 (ser240/244) (Cell Signaling Technology, Inc., Danvers, Mass.). […] Antibodies used were HDJ-2 (Lab Vision Corporation, Fremont, Calif.), Rapt (Santa Cruz Biotechnology, Santa Cruz, Calif.), K-Ras (EMD4 Biosciences (Calbiochem), Gibbstown, N.J.), P27 (BD Biosciences, San Jose, Calif.), Actin (Sigma-Aldrich, St. Louis, Mo.), Survivin (Santa Cruz Biotechnology, Santa Cruz, Calif.), and PARP (Roche, Indianapolis, Ind.).

[2] = test system: Panc-1; assay: MTT proliferation/viability assay; assay type: cell-based, human; details: Homo sapiens, Panc-1, pancreas
Protocol: (§1) To determine if FGTI-2734 is more efficacious than FT or GGT-1 inhibitors, 10 human cancer pancreatic cell lines, 2 human breast cancer cell lines, 2 human lung cancer cell lines and one human prostate cancer cell line were treated with these inhibitors and determined their effects on the proliferation of these cells by MTT assay.

[3] = test system: MCF-7; assay: MTT proliferation/viability assay; assay type: cell-based, human; details: Homo sapiens, MCF7, MCF-7, breast
Protocol: as §1

[4] = test system: HPNE; assay: MTT proliferation/viability assay; assay type: cell-based, human; details: Homo sapiens, pancreas
Protocol: as §1

[5] = test system: MiaPaca; assay: MTT proliferation/viability assay; assay type: cell-based, human; details: Homo sapiens, MIA PaCa-2, pancreas
Protocol: as §1

[6] = test system: Capan-2; assay: MTT proliferation/viability assay; assay type: cell-based, human
Protocol: as §1

[7] = test system: HPDE-C7; assay: MTT proliferation/viability assay; assay type: cell-based, human; details: Homo sapiens, HPDE-C7, pancreas
Protocol: as §1

[8] = test system: DU-145; assay: MTT proliferation/viability assay; assay type: cell-based, human; details: Homo sapiens, DU-145, DU-145, prostate
Protocol: as §1

[9] = test system: HDJ-2 farnesylation; assay: Western blot of HDJ-2 farnesylation/processing (gel shift) in treated cells; assay type: cell-based; details: MiaPaca, MDA-MB-468 and MDA-MB-231 human cancer cells; FIG. 13
Protocol: The ability of FGTI-2734 to inhibit HDJ-2 farnesylation and Rap-1A geranylgeranylation in human cancer cells was determined next. To this end, the MiaPaca pancreatic cancer cell line and 2 breast cancer cell lines (MDA-MB-468 and MDA-MB-231) were treated with various concentration of the dual inhibitor FGTI-2734, the GGT-1 inhibitor GGTI-2418 or the FT inhibitor FTI-2153 and processed for Western blotting.
(§2) Testing has shown that the dual farnesyltransferase and geranygeranyltransferase-I inhibitors are effective on pancreatic tumors (90% of all cases), colonic tumors (30% of all cases), lung tumors (30% of all cases), and breast tumors (10% of all cases). NIH-3T3 cells that overexpress oncogenic mutant K-Ras, seen in FIG. 14, and MDA-MB-231 breast cancer cells with a naturally occurring K-Ras mutation, seen in FIG. 15, were treated with indicated concentrations of FGTI-2734, GGTI-2417 or FTI-2153. FGTI-2734 but not FTI-2153 or GGTI-2417 inhibited K-Ras prenylation. As expected, GGTI-2417 inhibited the processing of Rap1 but not HDJ-2 whereas FTI-2153 inhibited the processing of HDJ-2 but not Rap1.
Mammalian target of rapamycin (mTOR) is a serine/threonine phosphatidylinositol 3-kinase-related kinase responsible for cell growth, proliferation, cell survival, protein synthesis, and transcription. […]

[10] = test system: geranylgeranylation of Rap1A; assay: Whole cell inhibition of Rap1A processing (geranylgeranylation), immunoblot, oncogenic H-Ras-transformed NIH3T3 cells; assay type: cell-based, mouse; details: Mus musculus; whole cells, oncogenic H-Ras-transformed NIH3T3; n = 3 unless stated; read-out: Rap1A processing IC50
Protocol: In vitro inhibition assays for FTase and GGTase-I were conducted by measuring the incorporation of [^3H]FPP and [^3H]GGPP into recombinant H-Ras-CVLS and H-Ras-CVLL, respectively, as previously described (Vogt, et al., Protein geranylgeranylation, not farnesylation, is required for the G1 to S phase transition in mouse fibroblasts. Oncogene, 1996, 13, 1991-1999). The in vivo inhibition of farnesylation and geranylgeranylation was determined based on the level of inhibition by synthetic compounds of H-Ras and Rap1A processing, respectively (Sun, et al., Both farnesyltransferase and geranylgeranyltransferase I inhibitors are required for inhibition of oncogenic K-Ras prenylation but each alone is sufficient to suppress human tumor growth in nude mouse xenografts. Oncogene, 1998, 16, 1467-1473). […] The separated proteins were transferred to nitrocellulose and immunoblotted using an anti-Ras antibody (Y13-258) or an anti-Rap1A antibody (SantaCruz Biotechnology, Santa Cruz, Calif.), respectively. Antibody reactions were visualized using either peroxidase-conjugated goat anti-rat IgG or goat anti-rabbit IgG (Jackson ImmunoResearch, West Grove, Pa.) and an enhanced chemiluminescence detection system.
Briefly, in vitro inhibition assays for hFTase and GGTase-I were carried out by measuring the incorporation of [^3H]FPP and [^3H]GGPP into recombinant H-Ras-CVLS and H-Ras-CVLL, respectively, as described previously (Vogt et al., Protein geranylgeranylation, not farnesylation, is required for G1 to S phase transition in mouse fibroblasts. Oncogene. 1996; 13:1991-1999). Whole cell inhibition of farnesylation and geranylgeranylation were determined based on the level of inhibition by synthetic compounds of H-Ras and Rap1A processing, respectively (Sun, et al., Both farnesyltransferase and geranylgeranyltransferase I inhibitors are required for inhibition of oncogenic K-Ras prenylation but each alone is sufficient to suppress human tumor growth in nude mouse xenografts. Oncogene. 1998; 16:1467-1473).

[11] = test system: K-Ras prenylation; assay: Western blot of oncogenic K-Ras processing/prenylation; assay type: cell-based; details: NIH-3T3 overexpressing oncogenic mutant K-Ras (FIG. 14) and MDA-MB-231 (FIG. 15)
Protocol: as §2
Mammalian target of rapamycin (mTOR) is a serine/threonine phosphatidylinositol 3-kinase-related kinase responsible for cell growth, proliferation, cell survival, protein synthesis, and transcription. Alteration of the mTOR pathway, either through activation of oncogenes or inactivation of tumor suppressors, disrupts a signaling equilibrium and causes malignant transformation. Studies have shown that phosphorylated S6 (pS6) is related to mTOR pathway alterations, and is useful in determining PI3K-based cancer therapies (Aziz, et al. Phosphatidylinositol-3-Kinase as a Therapeutic Target in Melanoma. Clin Cancer Res. 2009, 15; 3029-3036). […]

[12] = target: GGTase-I (Homo sapiens, UniProt P49354+P53609); assay: In vitro GGTase-I inhibition: incorporation of [3H]GGPP into recombinant H-Ras-CVLL; assay type: biochemical; details: average of n = 3 unless stated, errors are standard deviations, read-out: GGTase-1 IC50

IC50 [2]: 20.5 ± 3.18 µM
IC50 [3]: 4.42 ± 0.92 µM
IC50 [5]: 2.65 ± 0.3 µM
IC50 [8]: 11.2 ± 6.09 µM
IC50 [10]: 2.7 ± 1.5 µM
IC50 [12]: 0.52 ± 0.09 µM
SMILES: Cn1cncc1CN(CCN(CC1CCCCC1)S(=O)(=O)c1ccccn1)c1ccc(C#N)cc1F [21b, N-(2-((4-cyano-2-fluorophenyl)((1-methyl-1H-imidazol-5-yl)methyl)amino)ethyl)-N-(cyclohexylmethyl)pyridine-2-sulfonamide]
survivin protein levels ([1]; FIG. 18): reduces
apoptosis ([1]; FIG. 18 (PARP)): induces apoptosis
IC50 [4]: 13.5 ± 1.72 µM
IC50 ([6]; Capan-2, pancreas, listed as FGTI-2734): 30 µM
IC50 ([6]; Homo sapiens, Capan-2, Capan-2, pancreas): 24 µM
IC50 [7]: 7.5 µM
inhibition of HDJ-2 farnesylation [9]: inhibited
inhibition of K-Ras prenylation [11]: inhibited
